One assay has as its target human JAK3 (Homo sapiens (Human), UniProt P52333). The assay can be described thus: JAK3 kinase inhibitory activity, ADP Glo kinase assay. The assay is classed as biochemical. The conditions noted are these: recombinant purified human JAK3, ATP 5 uM, Poly(Glu4,Tyr1) peptide, 1 hour 30° C. The protocol:
JAK3 and BTK kinases inhibitory activities were measured for the compounds prepared in the Examples through in vitro analysis on the ADP Glow (Glo) platform.
Specifically, the inhibitory activities against JAK3 and BTK kinase were measured using a JAK3 kinase assay kit (Promega, V9441) and a BTK kinase assay kit (Promega, V9071) which were purchased from Promega. […] After incubation (30° C.) for 1 hour, equivalent volume (25 uL per reaction) of ADP Glo was added and incubated (30° C.) for 40 minutes at room temperature. Then, a kinase detection reagent (50 uL per reaction) was added and incubated (30° C.) for 30 minutes at room temperature. The kinase activity was measured by chemiluminescence according to the instructions of ADP Glow kinase assay kit, and the inhibitory activity of the compounds according to the present disclosure was calculated.
On the technique in general: ADP-Glo turns the ADP formed in a reaction into a luminescent signal.

A further assay has as its target human BTK (Homo sapiens (Human), UniProt Q06187). The assay can be described thus: BTK kinase inhibitory activity, ADP Glo kinase assay.
[1] abbreviates: read-out: BTK IC50, recombinant purified human BTK, ATP 10 uM, Poly(Glu4,Tyr1) peptide, 1 hour 30° C.

Read-outs that look alike come from different tables or passages of the source.

This note sets out measurements from patent US11339167B2, “Substituted piperidines as kinase inhibitors” (Daewoong Pharmaceutical Co., Ltd., priority 2017, dated 2022).

One may read the IC50 as the concentration that gives 50% inhibition.

Sequence of human BTK (Q06187 whole entry): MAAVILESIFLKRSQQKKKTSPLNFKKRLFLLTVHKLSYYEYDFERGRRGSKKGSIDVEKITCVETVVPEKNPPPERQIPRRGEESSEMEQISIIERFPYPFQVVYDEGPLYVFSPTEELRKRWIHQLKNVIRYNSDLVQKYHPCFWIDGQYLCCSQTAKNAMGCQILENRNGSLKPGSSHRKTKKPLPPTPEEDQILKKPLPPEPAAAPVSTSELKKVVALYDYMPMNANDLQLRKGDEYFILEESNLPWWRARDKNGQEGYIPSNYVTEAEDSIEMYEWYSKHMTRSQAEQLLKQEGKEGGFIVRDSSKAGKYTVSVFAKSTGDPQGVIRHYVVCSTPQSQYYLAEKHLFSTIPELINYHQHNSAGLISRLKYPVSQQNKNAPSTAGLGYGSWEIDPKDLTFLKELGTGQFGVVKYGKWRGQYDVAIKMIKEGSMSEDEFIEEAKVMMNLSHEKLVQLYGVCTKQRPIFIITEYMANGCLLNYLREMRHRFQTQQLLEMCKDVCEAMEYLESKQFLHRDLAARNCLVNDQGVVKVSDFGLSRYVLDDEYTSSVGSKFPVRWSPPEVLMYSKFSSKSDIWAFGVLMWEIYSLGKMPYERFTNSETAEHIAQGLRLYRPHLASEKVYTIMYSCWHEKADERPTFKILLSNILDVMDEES
Sequence of human JAK3 (P52333 whole entry): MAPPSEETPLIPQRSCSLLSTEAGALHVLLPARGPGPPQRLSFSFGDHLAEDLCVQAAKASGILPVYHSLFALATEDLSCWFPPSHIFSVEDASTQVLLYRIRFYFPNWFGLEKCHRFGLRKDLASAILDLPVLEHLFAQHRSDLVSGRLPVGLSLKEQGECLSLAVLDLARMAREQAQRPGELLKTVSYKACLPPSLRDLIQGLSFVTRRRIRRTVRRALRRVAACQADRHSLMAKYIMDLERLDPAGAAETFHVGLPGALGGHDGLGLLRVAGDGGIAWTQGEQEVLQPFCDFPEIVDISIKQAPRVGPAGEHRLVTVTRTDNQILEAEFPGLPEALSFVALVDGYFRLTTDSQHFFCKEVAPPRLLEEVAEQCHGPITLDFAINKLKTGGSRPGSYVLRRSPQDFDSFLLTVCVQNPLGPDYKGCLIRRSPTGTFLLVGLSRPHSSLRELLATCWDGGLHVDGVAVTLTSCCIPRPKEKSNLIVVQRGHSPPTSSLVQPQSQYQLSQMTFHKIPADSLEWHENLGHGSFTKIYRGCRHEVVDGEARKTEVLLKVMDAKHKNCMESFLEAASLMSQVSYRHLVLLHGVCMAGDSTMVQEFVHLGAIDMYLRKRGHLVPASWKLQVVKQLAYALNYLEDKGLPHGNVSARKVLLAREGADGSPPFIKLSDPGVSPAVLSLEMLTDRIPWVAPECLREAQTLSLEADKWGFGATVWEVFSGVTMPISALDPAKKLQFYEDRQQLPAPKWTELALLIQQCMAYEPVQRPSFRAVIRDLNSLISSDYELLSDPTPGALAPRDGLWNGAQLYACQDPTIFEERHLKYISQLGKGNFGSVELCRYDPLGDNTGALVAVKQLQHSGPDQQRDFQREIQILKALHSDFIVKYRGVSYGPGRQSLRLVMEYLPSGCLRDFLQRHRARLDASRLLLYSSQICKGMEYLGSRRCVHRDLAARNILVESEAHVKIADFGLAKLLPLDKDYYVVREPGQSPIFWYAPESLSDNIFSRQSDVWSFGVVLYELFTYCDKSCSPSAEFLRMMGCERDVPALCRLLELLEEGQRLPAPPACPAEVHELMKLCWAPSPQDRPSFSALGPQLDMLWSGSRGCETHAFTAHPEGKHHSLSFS

For `C=CC(=O)N1CC[C@@H](F)[C@H](Oc2nc(Nc3cnn(CC(F)F)c3)nc3[nH]ccc23)C1` (racemic) [Example 2, 1-(trans-3-((2-((1-(2,2-difluoroethyl)-1H-pyrazol-4-yl)amino)-7H-pyrrolo[2,3-d]pyrimidin-4-yl)oxy)-4-fluoropiperidin-1-yl)prop-2-en-1-one], the IC50 is 0.3 nM on human JAK3 and 2.5 nM against human BTK.

With `C=CC(=O)N1CC[C@@H](F)[C@H](Oc2nc(Nc3cnn(C4CC4)c3)nc3[nH]cc(Cl)c23)C1` (racemic) [Example 10, 1-(trans-3-((5-chloro-2-((1-cyclopropyl-1H-pyrazol-4-yl)amino)-7H-pyrrolo[2,3-d]pyrimidin-4-yl)oxy)-4-fluoropiperidin-1-yl)prop-2-en-1-one], the concentration for half-maximal inhibition (IC50) came out at 0.4 nM at human JAK3 and 2.8 nM on human BTK.

As for `C=CC(=O)N1CC[C@@H](F)[C@H](Oc2nc(Nc3cnn(CC)c3)nc3[nH]cc(C#N)c23)C1` (racemic) [Example 12, 4-((trans-1-acryloyl-4-fluoropiperidin-3-yl)oxy)-2-((1-ethyl-1H-pyrazol-4-yl)amino)-7H-pyrrolo[2,3-d]pyrimidine-5-carbonitrile], the IC50 was found to be 0.2 nM at human JAK3 and 1.3 nM against human BTK.

As to `C=CC(=O)N1CC[C@@H](F)[C@H](Oc2nc(Nc3cnn(C4CC4)c3)nc3[nH]cc(C#N)c23)C1` (racemic) [Example 13, 4-((trans-1-acryloyl-4-fluoropiperidin-3-yl)oxy)-2-((1-cyclopropyl-1H-pyrazol-4-yl)amino)-7H-pyrrolo[2,3-d]pyrimidine-5-carbonitrile], the IC50 at human JAK3 is 0.3 nM; at human BTK, 1.1 nM.

Take `C=CC(=O)N1CC[C@H](F)[C@H](Oc2nc(Nc3cnn(CC(F)F)c3)nc3[nH]cc(F)c23)C1` (racemic) [Example 16, 1-(cis-3-((2-((1-(2,2-difluoroethyl)-1H-pyrazol-4-yl)amino)-5-fluoro-7H-pyrrolo[2,3-d]pyrimidin-4-yl)oxy)-4-fluoropiperidin-1-yl)prop-2-en-1-one]: the values for the IC50 on human JAK3 and against human BTK were 0.6 nM and 5.9 nM, respectively.

Turning to `C=CC(=O)N1CC[C@H](F)[C@H](Oc2nc(Nc3cnn(CC(F)F)c3)nc3[nH]cc(C)c23)C1` (racemic) [Example 18, 1-(cis-3-((2-((1-(2,2-difluoroethyl)-1H-pyrazol-4-yl)amino)-5-methyl-7H-pyrrolo[2,3-d]pyrimidin-4-yl)oxy)-4-fluoropiperidin-1-yl)prop-2-en-1-one], the 50% inhibitory concentration (IC50) at human JAK3 stood at 0.7 nM; against human BTK, 7 nM.

Turning to `C=CC(=O)N1CC[C@@H](F)[C@H](Oc2nc(Nc3cnoc3)nc3[nH]ccc23)C1` (racemic) [Example 23, 1-(trans-4-fluoro-3-((2-(isoxazol-4-ylamino)-7H-pyrrolo[2,3-d]pyrimidin-4-yl)oxy)piperidin-1-yl)prop-2-en-1-one], the half-maximal inhibitory concentration (IC50) on human JAK3 turned out to be 0.7 nM; against human BTK, 11.6 nM.

`C=CC(=O)N1CC[C@@H](F)[C@@H](Oc2nc(Nc3cnn(CC(F)F)c3)nc3[nH]ccc23)C1` [Example 6, 1-((3S,4R)-3-((2-((1-(2,2-difluoroethyl)-1H-pyrazol-4-yl)amino)-7H-pyrrolo[2,3-d]pyrimidin-4-yl)oxy)-4-fluoropiperidin-1-yl)prop-2-en-1-one]: the IC50 at human JAK3 was 0.2 nM; on human BTK (setting [1]), 1.5 nM.

Take `C=CC(=O)N1CC[C@@H](F)[C@@H](Oc2nc(Nc3cc(C)ns3)nc3[nH]ccc23)C1` [Example 7, 1-((3S,4R)-4-fluoro-3-((2-((3-methylisothiazol-5-yl)amino)-7H-pyrrolo[2,3-d]pyrimidin-4-yl)oxy)piperidin-1-yl)prop-2-en-1-one]: the IC50 at human JAK3 was found to be 0.2 nM; on human BTK (setting [1]), 1.3 nM.

With `C=CC(=O)N1CC[C@@H](F)[C@@H](Oc2nc(Nc3cnn(C4CC4)c3)nc3[nH]ccc23)C1` [Example 8, 1-((3S,4R)-3-((2-((1-cyclopropyl-1H-pyrazol-4-yl)amino)-7H-pyrrolo[2,3-d]pyrimidin-4-yl)oxy)-4-fluoropiperidin-1-yl)prop-2-en-1-one], the IC50 at human JAK3 was 0.2 nM; on human BTK (setting [1]), 1.4 nM.

For `C=CC(=O)N1CC[C@@H](F)[C@@H](Oc2nc(Nc3cnn(CC)c3)nc3[nH]cc(C)c23)C1` [Example 19, 1-((3S,4R)-3-((2-((1-ethyl-1H-pyrazol-4-yl)amino)-5-methyl-7H-pyrrolo[2,3-d]pyrimidin-4-yl)oxy)-4-fluoropiperidin-1-yl)prop-2-en-1-one], the figures for the IC50 on human JAK3 and on human BTK (setting [1]) were 0.4 nM and 3.4 nM, respectively.

For the molecule `C=CC(=O)N1CC[C@@H](F)[C@@H](Oc2nc(Nc3cnn(CC(F)F)c3)nc3[nH]cc(C)c23)C1` [Example 20, 1-((3S,4R)-3-((2-((1-(2,2-difluoroethyl)-1H-pyrazol-4-yl)amino)-5-methyl-7H-pyrrolo[2,3-d]pyrimidin-4-yl)oxy)-4-fluoropiperidin-1-yl)prop-2-en-1-one], the IC50 at human JAK3 turned out to be 0.4 nM; on human BTK (setting [1]) it was 4.5 nM.

On to `C=CC(=O)N1CC[C@@H](F)[C@@H](Oc2nc(Nc3cc(C)ns3)nc3[nH]cc(C)c23)C1` [Example 21, 1-((3S,4R)-4-fluoro-3-((5-methyl-2-((3-methylisothiazol-5-yl)amino)-7H-pyrrolo[2,3-d]pyrimidin-4-yl)oxy)piperidin-1-yl)prop-2-en-1-one], for which the half-inhibitory concentration (IC50) on human JAK3 was 0.2 nM; on human BTK (setting [1]), 1.5 nM.

Turning to `C=CC(=O)N1CC[C@@H](F)[C@@H](Oc2nc(Nc3cnn(C4CC4)c3)nc3[nH]cc(C)c23)C1` [Example 22, 1-((3S,4R)-3-(2-((1-cyclopropyl-1H-pyrazol-4-yl)amino)-5-methyl-7H-pyrrolo[2,3-d]pyrimidin-4-yloxy)-4-fluoropiperidin-1-yl)prop-2-en-1-one], the IC50 on human JAK3 turned out to be 0.4 nM; on human BTK (setting [1]) it was 3.6 nM.

For the molecule `C=CC(=O)N1CC[C@@H](F)[C@H](Oc2nc(Nc3cnn(CC)c3)nc3[nH]ccc23)C1` [Example 24, 1-((3R,4R)-3-((2-((1-ethyl-1H-pyrazol-4-yl)amino)-7H-pyrrolo[2,3-d]pyrimidin-4-yl)oxy)-4-fluoropiperidin-1-yl)prop-2-en-1-one], the IC50 on human JAK3 is 5.9 nM; at human BTK (setting [1]) it was ~400 nM.

`C=CC(=O)N1CC[C@@H](F)[C@@H](Oc2nc(Nc3cnn(CC)c3)nc3[nH]cc(Cl)c23)C1` [Example 26, 1-((3S,4R)-3-((5-chloro-2-((1-ethyl-1H-pyrazol-4-yl)amino)-7H-pyrrolo[2,3-d]pyrimidin-4-yl)oxy)-4-fluoropiperidin-1-yl)prop-2-en-1-one]: the 50% inhibitory concentration (IC50) at human JAK3 worked out at 0.2 nM; at human BTK (setting [1]), 2 nM.

Turning to `C=CC(=O)N1CC[C@H](F)[C@H](Oc2nc(Nc3cnn(C4CC4)c3)nc3[nH]ccc23)C1` [Example 35, 1-((3R,4S)-3-((2-((1-cyclopropyl-1H-pyrazol-4-yl)amino)-7H-pyrrolo[2,3-d]pyrimidin-4-yl)oxy)-4-fluoropiperidin-1-yl)prop-2-en-1-one], the IC50 at human JAK3 came to 51.9 nM.

Regarding `C=CC(=O)N1CC[C@@H](F)[C@@H](Oc2nc(Nc3cnn(C4CCNCC4)c3)nc3[nH]ccc23)C1` [Example 36, 1-((3S,4R)-4-fluoro-3-((2-((1-(piperidin-4-yl)-1H-pyrazol-4-yl)amino)-7H-pyrrolo[2,3-d]pyrimidin-4-yl)oxy)piperidin-1-yl)prop-2-en-1-one], the IC50 at human JAK3 stood at 0.8 nM.
